From patent US9650399B2, “Salicylic acid derivatives, pharmaceutically acceptable salt thereof, composition thereof and method of use thereof” (The Governing Council of the University of Toronto, priority 2012, dated 2017)
Where two headings read alike, the source gives them in different places.

Key:
BTSC30M = test: alamarBlue cell viability, BTSC 30M; type: cell-based, human; details: for IC50: Homo sapiens
Method: (§1) First, the library was screened for biological activity against a set of three representative GBM BTSCs derived from GBM patients, including the very aggressive GBM BTSC lines, BTSC73M, BTSC30M, BTSC68EF. Dissociated BTSC spheres were seeded at 1500 cells/96-well and treated with drug compound or vehicle (DMSO) one day after plating. Cell viability following drug treatment was assessed after 72 hrs using the ALAMARBLUE™ assay (Invitrogen) according to the manufacturer's instructions. All culture experiments were performed in triplicate with a minimum of three wells per condition.
(§2) BTSC spheres were dissociated to single cells with the enzyme Accumax (Innovative Technologies), seeded at 1500 cells/96-well and treated with drug or vehicle (DMSO) one day after plating. […] BTSC spheres were dissociated to single cells as above and plated in 96 well plates in triplicate at 3000 cells/96-well. […] Cell viability following drug treatment was assessed three days later using the ALAMARBLUE™ assay (Invitrogen) according to the manufacturer's instructions. All culture experiments were performed in triplicate with a minimum of three wells per condition.

BTSC68EF = test: alamarBlue cell viability, BTSC 68EF; type: cell-based, human; details: Table 4 library screen, alamarBlue; for IC50: Homo sapiens, read-out: 68EF IC50
Method: as §1, §2

BTSC73M = test: alamarBlue cell viability, BTSC 73M; type: cell-based, human; details: alamarBlue; for IC50: Homo sapiens
Method: as §1, §2

147EF = test: alamarBlue cell viability, BTSC 147EF; type: cell-based, human; details: Table 4 library screen; for IC50: Homo sapiens
Text: BTSC spheres were dissociated to single cells with the enzyme Accumax (Innovative Technologies), seeded at 1500 cells/96-well and treated with drug or vehicle (DMSO) one day after plating. Cytotoxicity studies were repeated independently at Sickkids Hospital using BTSC lines 25M, 67EF, 73EF, 84EF and 127EF. BTSC spheres were dissociated to single cells as above and plated in 96 well plates in triplicate at 3000 cells/96-well. In both sets of experiments drugs were used as serial dilutions within the range of 5 μM to 100 nM in the first set and 25 μM to 10 nM. Cell viability following drug treatment was assessed three days later using the ALAMARBLUE™ assay (Invitrogen) according to the manufacturer's instructions. All culture experiments were performed in triplicate with a minimum of three wells per condition. Table 4 below illustrates a screen of the library against a number of BTSCs using ALAMARBLUE™ assay.

BTSCs = test: alamarBlue cytotoxicity across BTSC lines; type: cell-based, human; details: cytotoxicity, alamarBlue
Method: as §1, §2

pSTAT3 (Y705) = test: Western blot of phosphorylated STAT3 in BTSCs; type: cell-based, human; details: BTSC 73M, 1 μM inhibitor
Text: Blots were stained with antibodies: phospho-Y705, phospho-S727, Bcl-xL, cyclin D1, PARP and Actin. Bands were visualized with the ECL PLUS™ Western Blotting Detection System and […]™ (Amersham). […] BTSC spheres were lysed in modified RIPA buffer supplemented with Complete Mini protease (Roche) and Halt phosphatase (Thermo Scientific) inhibitor cocktails. […] Blots were stained with the following antibodies: phospho-STAT3 Y705 (1:1000, Cell Signalling Technology), phospho-STAT3 S727 (1:1000, Cell Signalling Technology), STAT3 (1:1000, Santa Cruz Biotechnology), Bcl-xL (1:1000, Cell Signalling Technology), cyclin D1 (1:1000, Cell Signalling Technology) PARP (1:1000, Cell Signalling Technology) and Actin (1:2500, Santa Cruz Biotechnology). HRP conjugated secondary antibodies, goat anti-rabbit (Cell Signalling Technology) were used at 1:2000 and donkey anti-mouse, donkey anti-goat, and goat anti-rabbit, (Calbiochem) were used at 1:6000. Bands were visualized with the ECL Plus Western Blotting Detection System and Hyperfilm (Amersham).

[1] = system: Breast cancer cells (MDA-MB-468); test: IC50 in breast cancer cells; type: cell-based; details: Homo sapiens, Table 6
Prostate (DU145) = test: IC50 in prostate cancer cells; type: cell-based; details: Homo sapiens, DU-145; Table 6
[2] = system: leukemia cancer cells (AML-2); test: IC50 in leukemia cancer cells; type: cell-based; details: Table 6
[3] = Table 4 library screen, alamarBlue
[4] = read-out: 30M IC50 (μM), Table 4 library screen, alamarBlue
[5] = Table 4 library screen, read-out: 73M IC50

Structure (SMILES)	30M IC50 (μM) (BTSC30M; [3])	IC50 (BTSC68EF) [nM]	73M IC50 (μM) (BTSC73M; Table 4 library screen)	68EF IC50 (μM) (BTSC68EF)	147EF IC50 (μM) (147EF)	IC50 (BTSC30M; [4]) [µM]	IC50 (BTSC73M; [5]) [µM]	also measured
Cc1ccc(S(=O)(=O)N(C)CC(=O)N(Cc2ccc(C3CCCCC3)cc2)c2ccc(C(=O)NO)cc2)cc1 [Compound 44, 4-(N-(4-cyclohexylbenzyl)-2-(N,4-dimethylphenylsulfonamido)acetamido)-N-hydroxybenzamide]	no effect	1740	no effect	–	–	–	–	IC50 (147EF): 2450 nM
Cc1ccc(S(=O)(=O)N(C)CC(=O)N(Cc2ccc(C3CCCCC3)cc2)c2ccc([N+](=O)[O-])cc2)cc1 [Compound 9, N-(4-cyclohexylbenzyl)-2-(N,4-dimethylphenylsulfonamido)-N-(4-nitrophenyl)acetamide]	no effect	–	no effect	no effect	no effect	–	–	–
CN(CC(=O)N(Cc1ccc(C2CCCCC2)cc1)c1ccc(NS(N)(=O)=O)cc1)S(=O)(=O)c1c(F)c(F)c(F)c(F)c1F [Compound 16, N-(4-cyclohexylbenzyl)-2-(2,3,4,5,6-pentafluoro-N-methylphenylsulfonamido)-N-(4-(sulfamoylamino)phenyl)acetamide]	–	839	–	–	–	0.95	2.04	–
CN(CC(=O)N(Cc1ccc(C2CCCCC2)cc1)c1ccc(NS(C)(=O)=O)cc1)S(=O)(=O)c1c(F)c(F)c(F)c(F)c1F [Compound 14, N-(4-cyclohexylbenzyl)-N-(4-(methylsulfonamido)phenyl)-2-(2,3,4,5,6-pentafluoro-N-methylphenylsulfonamido)acetamide]	–	806	–	–	–	0.718	1.81	–
CC(=O)Oc1cc(N(Cc2ccc(C3CCCCC3)cc2)C(=O)CN(C)S(=O)(=O)c2ccc(C)cc2)ccc1C(=O)O [Compound 23, 2-acetoxy-4-(N-(4-cyclohexylbenzyl)-2-(N,4-dimethylphenylsulfonamido)acetamido)benzoic acid]	no effect	–	no effect	no effect	no effect	–	–	–
Cc1ccc(S(=O)(=O)N(C)CC(=O)N(Cc2ccc(C3CCCCC3)cc2)c2ccc(C(=O)O)c(F)c2)cc1 [Compound 43, 4-(N-(4-cyclohexylbenzyl)-2-(N,4-dimethylphenylsulfonamido)acetamido)-2-fluorobenzoic acid]	no effect	–	no effect	no effect	no effect	–	–	–
CN(CC(=O)N(Cc1ccc(C2CCCCC2)cc1)c1ccc(C(=O)O)c(O)c1)S(=O)(=O)c1c(F)c(F)c(F)c(F)c1F [Compound 1, reference compound]	–	–	–	–	–	–	–	activity against BTSCs (in words) (BTSCs): low μM activity
CN(CC(=O)N(Cc1ccc(C2CCCCC2)cc1)c1ccc([N+](=O)[O-])cc1)S(=O)(=O)c1c(F)c(F)c(F)c(F)c1F [Compound 8, N-(4-cyclohexylbenzyl)-N-(4-nitrophenyl)-2-(2,3,4,5,6-pentafluoro-N-methylphenylsulfonamido)acetamide]	–	590	–	–	–	0.522	1.1	IC50 (147EF): 669 nM
COC(=O)c1ccc(N(Cc2ccc(C3CCCCC3)cc2)C(=O)CN(C)S(=O)(=O)c2c(F)c(F)c(F)c(F)c2F)cc1 [Compound 39, methyl 4-(N-(4-cyclohexylbenzyl)-2-(2,3,4,5,6-pentafluoro-N-methylphenylsulfonamido)acetamido)benzoate]	–	607	–	–	–	1.09	3.31	–
C[C@H](NC(=O)/C(C#N)=C/c1cccc(Br)n1)c1ccccc1 [WP1066, reference compound]	–	–	–	–	–	–	–	IC50 (BTSC30M; read-out: IC50 (μM) 30M, Table 2, BTSC 30M, alamarBlue, 72 hrs): 1.8 ± 0.22 µM; IC50 (BTSC73M; Table 2, BTSC 73M, 72 hrs, read-out: IC50 (μM) 73M): 2.1 µM; pSTAT3 suppression, comparative Western blot (pSTAT3 (Y705)): equipotent pSTAT3 suppression
Cc1ccc(S(=O)(=O)N(C)CC(=O)N(Cc2ccc(C3CCCCC3)cc2)c2ccc(N)cc2)cc1 [Compound 11, N-(4-aminophenyl)-N-(4-cyclohexylbenzyl)-2-(N,4-dimethylphenylsulfonamido)acetamide]	no effect	–	no effect	no effect	no effect	–	–	–
CN(CC(=O)N(Cc1ccc(C2CCCCC2)cc1)c1ccc(N)cc1)S(=O)(=O)c1c(F)c(F)c(F)c(F)c1F [Compound 10, N-(4-aminophenyl)-N-(4-cyclohexylbenzyl)-2-(2,3,4,5,6-pentafluoro-N-methylphenylsulfonamido)acetamide]	–	1720	–	–	–	1.33	1.81	IC50 (147EF): 1460 nM
Cc1ccc(S(=O)(=O)N(C)CC(=O)N(Cc2ccc(C3CCCCC3)cc2)c2ccc(NC(=O)C(=O)O)cc2)cc1 [Compound 46, 2-((4-(N-(4-cyclohexylbenzyl)-2-(N,4-dimethylphenylsulfonamido)acetamido)phenyl)amino)-2-oxoacetic acid]	no effect	–	no effect	–	no effect	–	–	–
CC(=O)Oc1cc(N(Cc2ccc(C3CCCCC3)cc2)C(=O)CN(C)S(=O)(=O)c2c(F)c(F)c(F)c(F)c2F)ccc1C(=O)O [SH-04-08, 2-acetoxy-4-(N-(4-cyclohexylbenzyl)-2-(2,3,4,5,6-pentafluoro-N-methylphenylsulfonamido)acetamido)benzoic acid]	–	–	–	–	–	–	–	IC50 (BTSC30M; read-out: IC50 BTSC 30M, Table 6, in parallel with other cancer lines): 0.9 µM; IC50 [1]: < 1000 nM; IC50 (Prostate (DU145)): 12000 nM; IC50 [2]: < 1000 nM
CN(CC(=O)N(Cc1ccc(C2CCCCC2)cc1)c1ccc(NC(=O)C(=O)O)cc1)S(=O)(=O)c1c(F)c(F)c(F)c(F)c1F [Compound 28, 2-((4-(N-(4-cyclohexylbenzyl)-2-(2,3,4,5,6-pentafluoro-N-methylphenylsulfonamido)acetamido)phenyl)amino)-2-oxoacetic acid]	no effect	–	no effect	–	no effect	–	–	–
CCOP(=O)(Cc1ccc(N(Cc2ccc(C3CCCCC3)cc2)C(=O)CN(C)S(=O)(=O)c2c(F)c(F)c(F)c(F)c2F)cc1)OCC [Compound 20, diethyl 4-(N-(4-cyclohexylbenzyl)-2-(2,3,4,5,6-pentafluoro-N-methylphenylsulfonamido)acetamido)benzylphosphonate]	–	–	–	no effect	–	0.664	1.82	–
CCOC(=O)C(=O)Nc1ccc(N(Cc2ccc(C3CCCCC3)cc2)C(=O)CN(C)S(=O)(=O)c2ccc(C)cc2)cc1 [Compound 18, ethyl 2-((4-(N-(4-cyclohexylbenzyl)-2-(N,4-dimethylphenylsulfonamido)acetamido)phenyl)amino)-2-oxoacetate]	no effect	–	no effect	–	–	–	–	IC50 (147EF): 3580 nM
Cc1ccc(S(=O)(=O)N(C)CC(=O)N(Cc2ccc(C3CCCCC3)cc2)c2ccc(O)cc2)cc1 [Compound 45, N-(4-cyclohexylbenzyl)-2-(N,4-dimethylphenylsulfonamido)-N-(4-hydroxyphenyl)acetamide]	no effect	–	no effect	no effect	no effect	–	–	–
CCOC(=O)C(=O)Nc1ccc(N(Cc2ccc(C3CCCCC3)cc2)C(=O)CN(C)S(=O)(=O)c2c(F)c(F)c(F)c(F)c2F)cc1 [Compound 17, ethyl 2-((4-(N-(4-cyclohexylbenzyl)-2-(2,3,4,5,6-pentafluoro-N-methylphenylsulfonamido)acetamido)phenyl)amino)-2-oxoacetate]	–	631	–	–	–	0.694	1.24	–
